Experimental data published in patent publication US7803844B2, “Composition for preventing and/or treating bone disease, physiologically functional or health food containing thereof, and pharmaceutical containing thereof as active ingredients” (Erina Co. Inc., priority 2004, dated 2010).
Read-outs that look alike come from different tables or passages of the source.

How the values were obtained:
[1] = tested on: MφRAW264 cells; assay: Proliferated cell number counting assay (XTT cell viability)
Protocol: As a non-RI method for determining cell proliferation and cell viability, color reaction by using XTT was employed. MφRAW264 cells were suspended in 10% FBS-MEM, and plated into the 96-well microplate at 0.4×10^4 cells/0.1 mL; then incubated for 1 day. Subsequently, 10% FBS-MEM solution of osteoclast differentiation factor (ODF/RANKL), 100 ng/mL, was added into 0.1 mL per well at final concentration of RANKL, 50 ng/mL. At the same time, honokiol solution at respective concentration was added into the wells. For the control wells, equal volume of methanol not including honokiol was added.
After 3 days incubation, the proliferated cells were counted by using commercially available Cell Proliferation Kit II (Roche Diagnostics Inc., Cat. No. 1 465 015) to obtain the cell viability. The procedure was carried out according to the instruction manual attached, and brief summaries were as follows.
XTT labeling reagent and electron coupling reagent included in the kit were mixed at the ratio of 50:1, and 50 μL of mixture was added per 0.1 mL of medium in each well; then reacted for 4 hours at 37° C. After the termination of the reaction, absorbance at 492 nm of the wave length was measured by using ELISA plate reader (Dainippon Pharma Co.), wherein the reference wave length was 690 nm.
In the above-mentioned (2-2), the same cell proliferation counting assay II was performed instead of honokiol to magnolol and their concentration used was at the range from 20 to 60 μM.

[2] = tested on: acid phosphatase; conditions: cited from earlier work
[3] = tested on: M-CSF dependent cells derived from mice bone marrow cells (BMM); assay: Inhibition assay II of the early stage differentiation of osteoclast (TRAP activity); type: cell-based, mouse; conditions: for IC50: Bone marrow cell, read-out: IC50, inhibition of differentiation from M-CSF dependent bone marrow cells to osteoclast induced by RANKL; for TRAP activity (control %): 1.5 days, honokiol 3-30 μM, magnolol 20-60 μM
Protocol: Mouse bone marrow cells were obtained from femurs and shanks of male ddy mice from 6 to 9 week age (Chubu Kagaku Shizai Co. Ltd.)
From 6 to 9 week ages of ddy mice, the femurs and shanks were excised. The bone row cells were extruded from these bones by using a syringe with 22 G×1 and ¼ gauge needle to obtain.
Obtained bone marrow cells were suspended in 10% FBS-MEM supplemented with 100 μg/mL of sodium streptomycin, 100 U/mL of sodium penicillin G, 50 ng/mL of M-CSF, and 1 ng/mL of TGF-β, and then inoculated to each well of the 96-well microplate at the cell concentration of 1×10^6 cells/0.1 mL/well. Then, the plates were incubated under the presence of 5% CO2, at 37° C.
After 3 days incubation, the culture medium was exchanged to that including 50 ng/mL of M-CSF and 50 ng/mL of osteoclast differentiation factor (DF/RANKL), simultaneously honokiol prepared as the same concentration as used in the example 1 was added. The medium of the control group was exchanged that including M-CSF and ODF/RANKL, but no honokiol. The plates were further incubated under the condition of the presence of 5% CO2, at 37° C.
After 1.5 days from the medium exchange, tartrate resistant acid phosphatase activity, the early stage differentiation marker, was measured. Medium in each well was discarded and washed plate with PBS, the cells in the well was fixed for 15 minutes by using 10% HCHO/PBS. Furthermore, the cells were fixed by using ethanol-acetone (1:1) mixture. After fixation, the fixed mixture was discarded and dried at room temperature. After drying, tartrate resistant acid phosphatase (TRAP) of the cells in each well was measured and stained similarly to those in the example 1.
The inhibition assay of the early stage differentiation of osteoclast was carried out similarly to the described above, except honokiol used in the above mentioned (3-2) was substituted to magnolol, and its concentration was from 20 to 60 μM.

[4] = tested on: M-CSF dependent cells derived from mice bone marrow cells (BMM); assay: Cell proliferation counting assay (XTT) in bone marrow derived cells
Protocol: Alternatively, the cell proliferation counting assay was performed as the same as that in the example 1, the cell viability was obtained. In FIG. 2A, the cell viability was shown as white columns.

[5] = tested on: MφRAW264 cells; assay: Inhibition assay I of the early phase differentiation of osteoclast (TRAP activity); type: cell-based; conditions: for TRAP activity (control %): MφRAW264 cells stimulated by 50 ng/mL ODF/RANKL, honokiol 3-30 μM, magnolol 20-60 μM; for IC50: Osteoclast, 72 h, read-out: IC50, inhibition of MφRAW264 cells to osteoclast by RANKL
From the text: Macrophage RAW264 cell line (RIKEN. cell No. CB0535, herein below, referred to as “MφRAW264”), which may differentiate to osteoclast-like cells, was used in the inhibition assay of the early phase differentiation of osteoclast. α-MEM (Invitrogen Co., Cat. No. 11900-024) including 10% of fetal bovine serum (Asahi Technoglass Co., (IWAKI), Cat. No. IWK-500) was used for cultivating MφRAW264. Osteoclast differentiation factor (ODF/RANKL) was purchased from Pepro Tech Inc., Cat. No. 310-01. Inhibition assay I of the early phase differentiation of osteoclast was performed for evaluating the inhibition level of the bone resorption in vitro, the differentiation assay of osteoclast from MφRAW264 cells in early stage. Results of the osteoclast assay were evaluated by determining tartrate resistant acid phosphatase (TRAP) activity, an early stage differentiation marker, and TRAP staining. By using these two indices, activities of flavones from MφRAW264 cells to osteoclast are quantitatively evaluated. MφRAW264 cells were suspended in a α-MEM supplemented 10% of fetal bovine serum (FBS), which is referred to as “10% FBS-MEM herein below”, and plated at 1×10^5 cells/10 mL in 100 mm φ dishes. Then, the dishes were incubated under the presence of 5% of CO2, at 37° C. for 3 days. After confirmed that the plated cells in the dishes became confluent, the incubation was finished. Subsequently, when the cells became confluent, they were treated by using 0.05% of trypsin and Hank's balanced salt solution containing 0.53 mM of EDTA (0.05% Trypsin-0.53 mM EDTA/HBSS (Invitrogen Co., Cat. No. 25300-054) to scrape them, and then suspended in 10% FBS-MEM to plate 0.4×10^4 cells/0.1 mL per each well of 96-well microplates. Then, the plates were incubated one day under the same condition as described above. Osteoclast differentiation factor (ODF/RANKL) was dissolved in 10% FBS-MEM to prepare 100 ng/mL of solution. Alternatively, a stock solution of honokiol was prepared at the concentration of 10 mM in methanol, and stored at −20° C. […] Equal volume of methanol was solely added into the control wells. Honokiol used in the following experiments were the solutions having each concentration prepared as described above. […] Equal volume of methanol without honokiol was added into the control wells. […] Incubation medium in each well of the 96-well microplate was discarded. […] After drying, tartrate resistant acid phosphatase activity was determined (hereinafter, it is referred to as “TRAP assay”), and staining of cells in the well was performed. […] Thirty minutes later, the reaction was terminated by adding 0.1 mL of 0.1 M NaOH, and released p-nitrophenol was determined by the spectrophotometer (Dainippon Pharmaceutical Co. Ltd.) at wave length 405 nm. […]

[6] = tested on: MφRAW264 cells; assay: Actin ring formation assay I; type: cell-based; conditions: 20 μM, 1 day after actin ring formation, MφRAW264 with ODF/RANKL and PD98059
Protocol: After that, 0.1 mL of the medium including 100 ng/mL of ODF/RANKL and 20 μM PD98059 was added, and further incubated under the same condition (final concentration of RANKL was 50 ng/mL, and that of PD98059 10 μM). In order to promote the differentiation to the activated osteoclast, two days after the addition of ODF/RANKL and PD98059, the medium was exchanged to that including 50 ng/mL of ODF/RANKL as described above; then the plate was incubated until the actin ring, the activated structure of osteoclast, formation was confirmed. After actin ring was formed, honokiol prepared as the same as that prepared in the example 1 was added, and cultured further one day. […] One day after when honokiol was added to culture, TRAP staining of the tartrate resistant acid phosphatase (TRAP) in each well, similarly o those performed.

[7] = tested on: MC3T3-E1 cells; assay: Cell viability after osteoblast differentiation induction (MTT assay); type: cell-based, mice; conditions: 30 μM, 7 days
Protocol: As an evaluation method for the effect against the differentiation of osteoblast, MC3T3-E1 cell osteoblast differentiation induction assay was used. In the assay, the activity of alkaline phosphatase (ALP), the early stage differentiation marker enzyme of osteoblast, was determined, and the staining utilizing the activity (ALP staining) was performed. Expression level of osteocalcin, which is the marker of the differentiated osteoblast, was determined by using the EIA kit described above. Furthermore, in order to know the cytotoxicity, the cell viability was determined by using MTT assay. MC3T3-E1 cells were plated into the wells of the 96-well microplate at the concentration of 4×10^3 cells/well, and incubated two days under the presence of 5% of CO2, at 37° C. until cells became confluent in the well. […] The medium was exchanged every 3 or 4 days. In order to determine the cell viability, MC3T3-E1 cells were cultured for 7 days under the condition as described above. After that, MTT reagent was added into the well at the 1/10 volume of the medium in the well, and reacted for 1 hour at 37° C. Then, the medium was removed, and generated formazan was dissolved in DMSO; then its absorbance was measured by using microplate reader at the wave length of 570 nm (reference wave length was 630 nm).

[8] = tested on: MC3T3-E1 cells; assay: Osteoblast differentiation induction assay, ALP activity; type: cell-based, mice; conditions: 3 to 30 μM, 7 days
Protocol: As an evaluation method for the effect against the differentiation of osteoblast, MC3T3-E1 cell osteoblast differentiation induction assay was used. In the assay, the activity of alkaline phosphatase (ALP), the early stage differentiation marker enzyme of osteoblast, was determined, and the staining utilizing the activity (ALP staining) was performed. Expression level of osteocalcin, which is the marker of the differentiated osteoblast, was determined by using the EIA kit described above. Furthermore, in order to know the cytotoxicity, the cell viability was determined by using MTT assay. MC3T3-E1 cells were plated into the wells of the 96-well microplate at the concentration of 4×10^3 cells/well, and incubated two days under the presence of 5% of CO2, at 37° C. until cells became confluent in the well. […] The medium was exchanged every 3 or 4 days. ALP activity was determined as follows. At first, MC3T3-E1 cells were cultured for 7 days under the same condition as described above; then the medium was removed, and washed by using PBS. After that cells were fixed by using methanol and the dish was dried. […] The reaction was terminated by adding 100 μL of 0.1 N NaOH, and released p-nitrophenol was determined by measuring absorbance at the wave length of 405 nm, by using the plate reader for obtaining ALP activity. […]

[9] = tested on: M-CSF dependent cells derived from mice bone marrow cells; assay: Pit formation assay of mature osteoclast; type: cell-based, mouse; conditions: 10 μM, 1 day, calcium phosphate apatite coated plate
Protocol: Alternatively, the bone marrow cells were obtained form the shanks and femurs from ddy mice of 6 to 9 week age, similarly to the methods employed in the example 3.
Obtained bone marrow cells were suspended in 10% FBS-MEM including 100 U/mL of sodium penicillin G, 100 μg/mL of streptomycin sulfate, 50 ng/mL of M-CSF, and 1 ng/mL of TGF-β. Then, the suspension was plated at 0.85×10^6 cells/0.1 mL/well into the 16 well multi slide plate (BioCoat Osteologic Bone Cell Culture System; BD Biosciences, Cat. No.: 354609) which was coated by calcium phosphate apatite, and incubated under the presence of 5% CO2, at 37° C.
After three days incubation, the medium was exchanged to that including 50 ng/mL of M-CSF and 100 ng/mL of osteoclast differentiation factor (ODF/RANKL). Subsequently, the plates were incubated under the same condition until the formation of actin ring, the osteoclast activated structure, was confirmed. After the actin ring was formed, honokiol prepared as the same concentration used in the example 1 is added, and incubated further one day. To the control group, the solvent without honokiol was added.
After 1 day incubation from the addition of honokiol, the medium in the well was discarded, and the plate was washed by using phosphate buffered saline (PBS); then, 0.1 mL of 0.1 M NaOH is added to every well to dissolve the cells in it. […]

[10] = tested on: MC3T3-E1 cells; assay: Osteoblast differentiation induction assay, osteocalcin concentration (EIA); type: cell-based, mice; conditions: 3 to 30 μM, 14 days, culture supernatant
Protocol: As an evaluation method for the effect against the differentiation of osteoblast, MC3T3-E1 cell osteoblast differentiation induction assay was used. In the assay, the activity of alkaline phosphatase (ALP), the early stage differentiation marker enzyme of osteoblast, was determined, and the staining utilizing the activity (ALP staining) was performed. Expression level of osteocalcin, which is the marker of the differentiated osteoblast, was determined by using the EIA kit described above. Furthermore, in order to know the cytotoxicity, the cell viability was determined by using MTT assay. MC3T3-E1 cells were plated into the wells of the 96-well microplate at the concentration of 4×10^3 cells/well, and incubated two days under the presence of 5% of CO2, at 37° C. until cells became confluent in the well. […] The medium was exchanged every 3 or 4 days. In order to determine the concentration of osteocalcin, culture supernatant of MC3T3-E1 cells cultured for 14 days under the above-mentioned conditions was used. Amount of osteocalcin in the culture supernatant was determined according to the procedure written on an instruction manual attached to the EIA kit.

[11] = mouse bone marrow M-CSF dependent cells, 50 ng/mL RANKL

IC50 [3, 11] [µM] | IC50 ([5]; MφRAW264 cells, RANKL 50 ng/mL, 3 days) [µM] | SMILES | cell viability (ratio against control wells = 100) ([1]; MφRAW264 cells, XTT, 3 days, honokiol 3-30 μM, magnolol 20-60 μM) | non-specific cytotoxicity to MφRAW264 cells ([1]; XTT, 3 days) | inhibition activity of acid phosphatase [2] | IC50 ([3]; Mus musculus) [µM] | TRAP activity (control %) [3, 11] | non-specific cytotoxicity (XTT assay) ([4]; mouse bone marrow M-CSF dependent cells) | TRAP activity (control %) ([5]; 3 days) | IC50 [5] [µM] | non-specific cytotoxicity to MφRAW264 cells [1] | actin rings (activated structure of osteoclast) [6] | cell viability of MC3T3-E1 cells [7] | ALP activity [8] | pit formation [9] | non-specific cytotoxicity (XTT assay) [4] | expression level of osteocalcin [10]
– | – | C=CCc1ccc(O)c(-c2cc(CC=C)ccc2O)c1 [magnolol] | seldom decreased | does not show non-specific cytotoxicity | has the inhibition activity of the acid phosphatase | 30 | dose-dependently inhibited | did not show the non-specific cytotoxicity | dose-dependently inhibited | 30 | – | – | – | – | – | – | –
10 | 15 | C=CCc1ccc(O)c(-c2ccc(O)c(CC=C)c2)c1 [honokiol] | – | – | has the inhibition activity of the acid phosphatase | – | inhibited, depending on the dose | – | dose-dependently inhibited | – | does not show non-specific cytotoxicity | destructed | slightly decreased | enhanced in dose dependent manner | significantly decreased | did not show non-specific cytotoxicity | enhanced
